Results on seven compounds are retold here after ChEMBL document CHEMBL2086348, “Amide-based derivatives of β-alanine hydroxamic acid as histone deacetylase inhibitors: attenuation of potency through resonance effects” (Bioorg Med Chem Lett, 2012).

The target of test [1] is T1, Histone deacetylase 1 (Homo sapiens, UniProt Q13547). The test can be described thus: Inhibition of HDAC1 by fluorometric assay.
The target of test [2] is T1, Histone deacetylase 1. The test can be described thus: Inhibition of HDAC1 at 250 uM by fluorometric assay.
Test [3] can be described thus: Antiproliferative activity against human BE(2)-C cells at 50 uM after 72 hrs by Alamar blue assay. It counts as functional.
Test [4] is described as follows: Antiproliferative activity against human BE(2)-C cells after 72 hrs by Alamar blue assay. It counts as functional, cell-based.
Test [5] deals with Histone deacetylase (Homo sapiens) (UniProt Q13547+O15379+Q9UBN7+Q92769+Q9UQL6+Q8WUI4+Q9BY41+Q96DB2+P56524+Q9UKV0+Q969S8). The test can be described thus: Inhibition of HDAC in human HeLa cell extracts at 1 uM. In kind it is protein assay.

A value given as a limit tells only on which side of the number the result lay.

T1 sequence (Q13547 whole entry): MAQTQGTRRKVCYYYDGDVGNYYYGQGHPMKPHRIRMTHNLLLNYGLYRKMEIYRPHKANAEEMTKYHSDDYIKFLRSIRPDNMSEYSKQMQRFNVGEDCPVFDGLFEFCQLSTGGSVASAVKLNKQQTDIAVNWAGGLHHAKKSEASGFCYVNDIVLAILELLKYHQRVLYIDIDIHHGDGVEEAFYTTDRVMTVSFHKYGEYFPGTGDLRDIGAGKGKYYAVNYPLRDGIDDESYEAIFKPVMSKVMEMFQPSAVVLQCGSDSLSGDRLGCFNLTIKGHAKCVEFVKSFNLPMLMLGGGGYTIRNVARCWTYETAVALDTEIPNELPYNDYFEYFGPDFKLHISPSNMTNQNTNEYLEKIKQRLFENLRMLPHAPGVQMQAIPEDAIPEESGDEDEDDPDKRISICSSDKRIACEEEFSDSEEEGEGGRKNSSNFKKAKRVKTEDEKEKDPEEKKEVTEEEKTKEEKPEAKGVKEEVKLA

Compound `CN(C)c1ccc(/C=C/C(=O)NCCC(=O)NO)cc1` returned an IC50 in test [1] of over 250 µM. The compound also had an inhibition in test [2] of 40%. Besides, the Activity in test [3] was determined as 57%.

Regarding `CC(/C=C/C(=O)NO)=C\[C@@H](C)C(=O)c1ccc(N(C)C)cc1` [TRICHOSTATIN], the 70% effect concentration (IC70) in test [4] was found to be 0.05 µM.

Compound `O=C(CCNC(=O)Cc1ccc([N+](=O)[O-])cc1)NO` showed an IC50 in test [1] of 39.4 µM. Besides, the Activity in test [3] turned out to be 87.9%.

In the case of `CN(C)c1ccc(CC(=O)NCCC(=O)NO)cc1`, in test [1], inhibition was half-maximal at 38 µM (IC50). In test [3], the Activity was determined as 62.8%.

On to `O=C(/C=C/c1ccccc1)NCCC(=O)NO`, for which the IC50 in test [1] was 67 µM. Further, the Activity in test [3] is 88.6%. In test [5], this compound gave an inhibition of 19%.

Take `Cc1ccc(CCC(=O)NCCC(=O)NO)cc1`: in test [1], the IC50 turned out to be 80 µM. In test [3], this compound registered an Activity of 72.4%.

Consider `Cc1ccc(OCC(=O)NCCC(=O)NO)cc1`, for which the IC50 in test [1] is 84 µM. Also, the Activity in test [3] was 80.4%.
